Columns and labels:
[1] = biological target: PDGFR-β (Homo sapiens, UniProt P09619); experiment: PDGFR-β inhibition, whole cell phosphotyrosine ELISA cytoblot; assay type: cell-based; details: whole cell assay
[2] = biological target: VEGFR-1 (Homo sapiens, UniProt P17948); experiment: VEGFR-1 inhibition, whole cell phosphotyrosine ELISA cytoblot; assay type: cell-based; details: whole cell assay
Chain of VEGFR-1 (P17948 27-1338): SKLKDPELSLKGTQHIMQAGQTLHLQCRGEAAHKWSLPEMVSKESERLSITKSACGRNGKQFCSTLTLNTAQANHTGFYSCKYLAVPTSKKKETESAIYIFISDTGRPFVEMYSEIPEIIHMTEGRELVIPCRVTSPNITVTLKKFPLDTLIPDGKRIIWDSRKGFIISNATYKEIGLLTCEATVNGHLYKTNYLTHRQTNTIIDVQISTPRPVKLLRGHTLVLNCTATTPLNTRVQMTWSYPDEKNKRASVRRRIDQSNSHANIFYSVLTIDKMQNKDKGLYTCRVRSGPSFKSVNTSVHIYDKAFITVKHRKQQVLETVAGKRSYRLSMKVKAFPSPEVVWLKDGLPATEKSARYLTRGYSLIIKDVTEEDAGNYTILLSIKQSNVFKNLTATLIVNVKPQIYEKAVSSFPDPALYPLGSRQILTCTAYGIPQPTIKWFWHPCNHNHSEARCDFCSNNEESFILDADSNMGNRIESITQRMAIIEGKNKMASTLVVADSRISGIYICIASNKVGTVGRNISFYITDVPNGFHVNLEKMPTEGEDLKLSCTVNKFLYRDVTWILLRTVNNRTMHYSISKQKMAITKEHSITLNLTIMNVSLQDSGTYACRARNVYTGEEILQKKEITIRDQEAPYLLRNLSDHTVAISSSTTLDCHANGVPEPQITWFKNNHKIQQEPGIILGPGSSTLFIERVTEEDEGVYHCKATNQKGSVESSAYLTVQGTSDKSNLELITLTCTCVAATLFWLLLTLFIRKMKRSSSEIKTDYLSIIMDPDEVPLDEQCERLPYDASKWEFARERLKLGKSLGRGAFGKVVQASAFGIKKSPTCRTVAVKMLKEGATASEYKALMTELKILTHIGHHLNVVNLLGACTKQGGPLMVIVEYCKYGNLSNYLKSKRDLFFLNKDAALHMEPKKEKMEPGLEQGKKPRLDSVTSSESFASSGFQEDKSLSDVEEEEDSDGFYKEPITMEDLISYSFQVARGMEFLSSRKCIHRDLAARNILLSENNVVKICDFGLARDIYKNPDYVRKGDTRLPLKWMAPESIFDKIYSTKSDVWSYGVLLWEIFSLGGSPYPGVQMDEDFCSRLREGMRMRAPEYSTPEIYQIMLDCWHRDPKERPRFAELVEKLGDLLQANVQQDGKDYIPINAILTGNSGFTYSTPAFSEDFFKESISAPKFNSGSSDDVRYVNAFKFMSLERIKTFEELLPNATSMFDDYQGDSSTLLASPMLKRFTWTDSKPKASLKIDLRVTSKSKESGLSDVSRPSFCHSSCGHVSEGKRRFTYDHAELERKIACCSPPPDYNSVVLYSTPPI

Chain of PDGFR-β (P09619 33-1106): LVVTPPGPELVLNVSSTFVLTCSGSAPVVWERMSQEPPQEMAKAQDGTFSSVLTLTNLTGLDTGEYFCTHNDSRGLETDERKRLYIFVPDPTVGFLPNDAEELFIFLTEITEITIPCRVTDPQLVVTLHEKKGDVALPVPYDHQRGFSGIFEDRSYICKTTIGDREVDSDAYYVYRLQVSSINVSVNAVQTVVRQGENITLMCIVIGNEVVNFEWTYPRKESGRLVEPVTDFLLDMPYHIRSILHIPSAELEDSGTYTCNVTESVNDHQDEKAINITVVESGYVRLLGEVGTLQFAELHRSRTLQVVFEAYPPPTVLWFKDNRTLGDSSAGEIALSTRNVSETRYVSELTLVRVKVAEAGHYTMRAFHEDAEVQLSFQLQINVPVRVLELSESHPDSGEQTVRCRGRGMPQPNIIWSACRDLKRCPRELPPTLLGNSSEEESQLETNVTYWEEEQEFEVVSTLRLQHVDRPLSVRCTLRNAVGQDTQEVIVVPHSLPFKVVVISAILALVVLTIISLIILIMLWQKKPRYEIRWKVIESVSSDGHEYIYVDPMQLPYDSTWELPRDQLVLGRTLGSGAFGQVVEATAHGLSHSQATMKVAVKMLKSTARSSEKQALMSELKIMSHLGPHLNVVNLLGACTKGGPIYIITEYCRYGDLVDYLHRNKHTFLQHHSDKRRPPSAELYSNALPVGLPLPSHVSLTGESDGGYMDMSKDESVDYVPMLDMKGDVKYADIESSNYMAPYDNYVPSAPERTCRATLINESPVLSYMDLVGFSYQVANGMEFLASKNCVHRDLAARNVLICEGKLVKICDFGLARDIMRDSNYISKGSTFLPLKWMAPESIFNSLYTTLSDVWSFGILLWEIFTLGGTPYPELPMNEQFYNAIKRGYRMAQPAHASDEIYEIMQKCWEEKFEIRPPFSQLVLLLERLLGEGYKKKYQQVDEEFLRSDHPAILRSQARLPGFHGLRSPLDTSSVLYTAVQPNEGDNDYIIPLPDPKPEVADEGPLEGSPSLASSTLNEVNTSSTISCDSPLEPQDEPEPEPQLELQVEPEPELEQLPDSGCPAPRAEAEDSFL

Row | PDGFR-β inhibition, result in words [1] | VEGFR-1 inhibition, result in words [2] | SMILES
1 | inactive |  | Fc1ccc(Nc2ncnc3[nH]c(CCc4ccccc4)cc23)cc1C(F)(F)F [Compound 23]
2 | inactive |  | C#Cc1cccc(Nc2ncnc3[nH]c(CCc4ccccc4)cc23)c1 [Compound 20]
3 |  | inactive | Fc1ccc(Nc2ncnc3[nH]c(CCc4ccccc4)cc23)cc1Br [Compound 22]
4 | inactive | inactive | Fc1cc(Cl)ccc1Nc1ncnc2[nH]c(CCc3ccccc3)cc12 [Compound 24]
5 | inactive | inactive | FC(F)(F)c1cccc(Nc2ncnc3[nH]c(CCc4ccccc4)cc23)c1 [Compound 21]

Reference: PMC2866134 (Bioorganic & medicinal chemistry letters, 2010)
